This passage reports GI50 and TGI results from PubChem BioAssay (NCI).

Assay in all cases: NCI tumour cell line growth inhibition, 48 h
For assay [1], the system named is CAKI-1 renal.
Assay [2] has as its system COLO 205 colon.
For assay [3], the system named is EKVX NSCLC.
Assay [4] deals with MDA-MB-231 breast.
Assay [5] deals with MDA-MB-435.
For assay [6], the system named is MOLT-4 leukemia.
Assay [7] deals with OVCAR-4 ovarian.
Assay [8] concerns RPMI-8226 leukemia.
For assay [9], the system named is SNB-19 CNS.
The test system of assay [10] is T-47D breast.

Molecules are shown by their SMILES. Values joined by “and” are separate entries in the source; they are usually repeats but may differ in a detail not shown here. Identical values can stand only once.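 These data come from cells grown in 96-well plates and exposed to compound for 48 hours at five concentrations. GI50: concentration for 50% inhibition of growth. TGI marks complete inhibition of growth.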

`COc1ccc(C2=NN(C(=O)COc3ccc(Cl)cc3)C(O)(c3cc(F)c(Cl)cc3Cl)C2)cc1OC` (stereo not given): the GI50 in assay [1] is 1.68 µM; in [2] it was 1.63 µM; in assay [3] it was 10.5 µM; in assay [4] it was 2.41 µM; in assay [5], 1.62 µM; in [6], 1.47 µM. Besides, the GI50 is 2.26 µM in assay [7], 1.79 µM in [8], 11.7 µM in assay [9] and 1.51 µM in assay [10]. Moreover, the TGI in assay [1] is 3.6 µM; in assay [2], 3.41 µM; in assay [3] it was 22.8 µM; in assay [4], 6.53 µM; in assay [5], 3.48 µM; in [6], greater than 20.6 µM. Further, the TGI was found to be 6.97 µM in assay [7], 5.78 µM in [8], 25.8 µM in [9] and 3.29 µM in assay [10].
With `Cn1ccc2c(NCCN)c3c(c(NCCN)c21)C(=O)c1ccccc1C3=O`, the GI50 in assay [1] was 2.51 µM; in assay [2], 24.4 µM; in assay [3], 1.34 µM; in [4] it was 0.619 µM; in assay [5], 1.54 µM; in assay [6], less than 0.0429 µM. The GI50 in [7] is 9.46 µM; in [8] it was 0.455 µM; in [9], 20.5 µM; in [10], 27.4 µM. In addition, the TGI in assay [1] was 9.48 µM; in [2] it was 68.4 µM; in assay [3], 5.3 µM; in assay [4] it was 2.38 µM; in assay [5], 5.59 µM; in assay [7], 30.8 µM. Besides, the values for the TGI in [9] and in [10] were 47.2 µM and 62 µM, respectively.
Take `CC1(C)OC[C@@H]([C@@]2(CO[Si](C)(C)C(C)(C)C)CC=CC(=O)O2)O1`: the GI50 is 12.2 µM in [1]; 33.5 µM in assay [2]; 26.9 µM in assay [3]; 27.2 µM in assay [4]; 22.8 µM in assay [5]; 23.7 µM in assay [6]. Moreover, the GI50 in assay [7] is 30.7 µM; in assay [8], 24.2 µM; in [9], 22.7 µM; in assay [10], 24.9 µM. The TGI is 57.7 µM in [1]; greater than 100 µM in assay [2]; 63.3 µM in [3]; 59.9 µM in assay [4]; 57.4 µM in [5]; greater than 100 µM in assay [6]. For the same molecule, the TGI was greater than 100 µM in assay [7], 80.5 µM in [8], 68.9 µM in assay [9] and greater than 100 µM in assay [10].
Regarding `O=C1/C(=C/c2ccc(O)c([N+](=O)[O-])c2)CCC/C1=C\c1ccc(O)c([N+](=O)[O-])c1`, the TGI in [1] was 20.4 µM; in assay [2], 31.9 µM and 40.6 µM; in assay [3] it was 50 µM and 28.8 µM; in [4], 50 µM and 39.3 µM; in [5] it was 21.3 µM and 5.35 µM; in assay [6], 50 µM and 47 µM. Further, the TGI in assay [7] was 50 µM and > 100 µM; in assay [8] it was 50 µM and 32.6 µM; in [9], 28.7 µM and 35.2 µM; in assay [10], 47.5 µM. The GI50 in [2] is 20.8 µM; in [3], 15 µM; in [4], 16.4 µM; in assay [5], 1.53 µM; in assay [6] it was 17.4 µM; in [7], 4.34 µM. Moreover, the GI50 in [8] was 10 µM; in assay [9], 17.1 µM.
For `NCCCC(=O)Nc1ccncc1`, the GI50 in assay [1], in assay [2], in assay [3], in [4], in assay [5] and in [6] was greater than 100 µM each time. Besides, the GI50 in assay [7], in assay [8], in assay [9] and in assay [10] was greater than 100 µM in each case. Also, the TGI in assay [1], in assay [2], in assay [3], in [4], in assay [5] and in assay [6] was greater than 100 µM in each case. The TGI in [7], in assay [8], in [9] and in assay [10] was greater than 100 µM in each case.
Take `COc1c(C)c2c(c(O)c1C/C=C(\C)CCC(=O)OCCN1CCOCC1)C(=O)OC2`: the GI50 in assay [1] is 0.299 µM; in assay [2], 0.692 µM; in assay [4] it was 3.48 µM; in assay [5], 0.201 µM; in [6] it was 0.302 µM; in [7], 0.576 µM. The GI50 in assay [8] is 0.891 µM; in assay [9], 0.325 µM; in assay [10], 0.612 µM. In addition, the TGI in [1], in assay [2], in assay [3], in assay [4], in assay [5] and in [6] was greater than 100 µM throughout. Further, the TGI in assay [7] is greater than 76.7 µM; in assay [8] it was greater than 100 µM; in assay [9] it was greater than 100 µM; in assay [10] it was greater than 100 µM.
As to `CCN(CC)CCOc1ccc(Nc2ncc3cc(-c4ccc(O)cc4)c(=O)n(C)c3n2)cc1`, the GI50 is 0.0379 µM in assay [1]; 1.59 µM in assay [2]; 15.1 µM in [3]; 1.17 µM in assay [4]; 0.983 µM in assay [5]; 0.2 µM in [6]. In addition, the GI50 in [7] is 16.7 µM; in assay [8], 14.5 µM; in assay [9], 8.57 µM; in assay [10], 12.2 µM. In addition, the TGI in assay [1] came out at 16.1 µM; in assay [2] it was 17.2 µM; in [3], 37.5 µM; in assay [4], 7.36 µM; in assay [5] it was 16.1 µM; in assay [6], 21.8 µM. The TGI in [7] came to 33.7 µM; in [8], 44.5 µM; in assay [9], 27.5 µM; in assay [10] it was 31.8 µM.
